This is an account of results in patent US10975093B2, “Fused 1,4-diazepines as BET protein degraders” (THE REGENTS OF THE UNIVERSITY OF MICHIGAN, priority 2016, dated 2021).

What all share (type): cell-based
For assay [1], the system named is MOLM-13. The assay can be described thus: Cell growth inhibition, CellTiter-Glo Luminescent Cell Viability Assay, MOLM-13. The settings on record: Homo sapiens, MOLM-13 cells, 4 days incubation. Summed up:
(§1)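 Cells were seeded at 2,000/well with serially diluted compound and grown 4 days at 37° C, 5% CO2. Viability was read by CellTiter-Glo luminescence after 10-20 min at room temperature, and IC50 was fitted from the dose-response.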
In general terms: Cellular ATP, detected with luciferase, serves as a proxy for viable cell number.

The subject of assay [2] is MDA-MB-231. Kind of assay: Cell growth inhibition, CellTiter-Glo Luminescent Cell Viability Assay, MDA-MB-231. The settings on record: Homo sapiens, MDA-MB-231 cells, 4 days incubation. Summed up:
as §1

Assay [3] relates to RS4; 11. The assay can be described thus: Cell growth inhibition, CellTiter-Glo Luminescent Cell Viability Assay, RS4;11. As to conditions: Homo sapiens, 96 h, RS4;11 cells, 4 days incubation. The method, then:
(§2) Cell growth inhibitory activity of representative Compounds of the Disclosure was determined in various cell lines using CellTiter-Glo® Luminescent Cell Viability Assay. Cells were seeded in 384-well white opaque cell culture plates at a density of 2,000 cells/well with serially diluted compounds and incubated at 37° C. in an atmosphere of 95% air and 5% CO2 for 4 days. Cell viability was determined using the CellTiter-Glo® Luminescent Cell Viability Assay Kit (Promega, Madison, Wis.) according to the manufacture's instruction. Briefly, a volume of CellTiter-Glo® Reagent equal to the volume of cell culture medium was added to each well, and then the plates were incubated at room temperature for 10-20 minutes. The luminescent signal was measured using a Tecan Infinite M1000 multimode microplate reader (Tecan, Morrisville, N.C.). The half maximal inhibitory concentration (IC50) was calculated using the GraphPad Prism 5 software (GraphPad Software, La Jolla, Calif.).

Assay [4] deals with MDA-MB-468. Kind of assay: Cell growth inhibition, CellTiter-Glo Luminescent Cell Viability Assay, MDA-MB-468. As to conditions: Homo sapiens, 96 h, MDA-MB-468 cells, 4 days incubation. The method, then:
as §2

For the compound `Cc1c(C#Cc2cn(CCCC#Cc3cccc4c3CN(C3CCC(=O)NC3=O)C4=O)nn2)sc2c1C(c1ccc(Cl)cc1)=NCc1nnc(C)n1-2` (stereo not shown) [Cpd. No. 1, 3-(4-(5-(4-((4-(4-chlorophenyl)-3,9-dimethyl-6H-thieno[3,2-f][1,2,4]triazolo[4,3-a][1,4]diazepin-2-yl)ethynyl)-1H-1,2,3-triazol-1-yl)pent-1-yn-1-yl)-1-oxoisoindolin-2-yl)piperidine-2,6-dione], the IC50 – broadly, the concentration at which inhibition is half-maximal – was 1.16 nM in assay [1] (96 h), 8.1 nM in assay [2] (96 h), 0.25 nM in assay [3] and 10 nM in assay [4].
As for `Cc1c(C#Cc2cn(CCCC#Cc3cccc4c3CN(C3CCC(=O)NC3=O)C4=O)nn2)sc2c1C(c1ccc(Cl)cc1)=N[C@@H](C)c1nnc(C)n1-2` (stereo partly drawn) [Cpd. No. 2, 3-(4-(5-(4-(((S)-4-(4-chlorophenyl)-3,6,9-trimethyl-6H-thieno[3,2-f][1,2,4]triazolo[4,3-a][1,4]diazepin-2-yl)ethynyl)-1H-1,2,3-triazol-1-yl)pent-1-yn-1-yl)-1-oxoisoindolin-2-yl)piperidine-2,6-dione], the IC50 in assay [1] (96 h) was 0.4 nM; in assay [2] (96 h) it was 0.19 nM; in assay [3] it was less than 0.0015 nM; in assay [4] it was 0.27 nM.
On the same counts, the results for `Cc1c(C#Cc2cn(CCCCCc3cccc4c3CN(C3CCC(=O)NC3=O)C4=O)nn2)sc2c1C(c1ccc(Cl)cc1)=NCc1nnc(C)n1-2` (stereo not shown) [Cpd. No. 3, 3-(4-(5-(4-((4-(4-chlorophenyl)-3,9-dimethyl-6H-thieno[3,2-f][1,2,4]triazolo[4,3-a][1,4]diazepin-2-yl)ethynyl)-1H-1,2,3-triazol-1-yl)pentyl)-1-oxoisoindolin-2-yl)piperidine-2,6-dione] are 1 nM, 3.5 nM, 0.27 nM and 3.1 nM.
In the same order, the values of `Cc1c(C#Cc2cn(CCCCCc3cccc4c3CN(C3CCC(=O)NC3=O)C4=O)nn2)sc2c1C(c1ccc(Cl)cc1)=N[C@@H](C)c1nnc(C)n1-2` (stereo partly drawn) [Cpd. No. 4, 3-(4-(5-(4-(((S)-4-(4-chlorophenyl)-3,6,9-trimethyl-6H-thieno[3,2 f][1,2,4]triazolo[4,3-a][1,4]diazepin-2-yl)ethynyl)-1H-1,2,3-triazol-1-yl)pentyl)-1-oxoisoindolin-2-yl)piperidine-2,6-dione] are 0.3 nM, less than 0.015 nM, less than 0.0015 nM and less than 0.015 nM.
As for `Cc1c(C#Cc2cn(CCCCNc3cccc4c3CN(C3CCC(=O)NC3=O)C4=O)nn2)sc2c1C(c1ccc(Cl)cc1)=NCc1nnc(C)n1-2` (stereo not shown) [Cpd. No. 5, 3-(4-((4-(4-((4-(4-chlorophenyl)-3,9-dimethyl-6H-thieno[3,2-f][1,2,4]triazolo[4,3-a][1,4]diazepin-2-yl)ethynyl)-1H-1,2,3-triazol-1-yl)butyl)amino)-1-oxoisoindolin-2-yl)piperidine-2,6-dione], the 50% inhibitory concentration (IC50) in assay [1] (96 h) turned out to be 3.6 nM; in assay [2] (96 h) it was 22.8 nM; in assay [3], 0.29 nM; in assay [4], 26.1 nM.
In the case of `Cc1c(C#Cc2ccc(OCCCCc3cccc4c3CN(C3CCC(=O)NC3=O)C4=O)cn2)sc2c1C(c1ccc(Cl)cc1)=NCc1nnc(C)n1-2` (stereo not shown) [Cpd. No. 11, 3-(4-(4-((6-((4-(4-chlorophenyl)-3,9-dimethyl-6H-thieno[3,2-f][1,2,4]triazolo[4,3-a][1,4]diazepin-2-yl)ethynyl)pyridin-3-yl)oxy)butyl)-1-oxoisoindolin-2-yl)piperidine-2,6-dione], the half-inhibitory concentration (IC50) was determined as 11.4 nM in assay [1] (96 h), 18.1 nM in assay [2] (96 h) and 51 nM in assay [4].
On the same counts, the results for `Cc1c(C#Cc2ccc(OCCCCc3cccc4c3CN(C3CCC(=O)NC3=O)C4=O)cn2)sc2c1C(c1ccc(Cl)cc1)=N[C@@H](C)c1nnc(C)n1-2` (stereo partly drawn) [Cpd. No. 12, 3-(4-(4-((6-(((S)-4-(4-chlorophenyl)-3,6,9-trimethyl-6H-thieno[3,2-f][1,2,4]triazolo[4,3-a][1,4]diazepin-2-yl)ethynyl)pyridin-3-yl)oxy)butyl)-1-oxoisoindolin-2-yl)piperidine-2,6-dione] are 1.2 nM, 0.86 nM and 3 nM.
For the compound `Cc1c(C#Cc2ccc(CCCC#Cc3cccc4c3CN(C3CCC(=O)NC3=O)C4=O)cn2)sc2c1C(c1ccc(Cl)cc1)=NCc1nnc(C)n1-2` (stereo not shown) [Cpd. No. 13, 3-(4-(5-(6-((4-(4-chlorophenyl)-3,9-dimethyl-6H-thieno[3,2-f][1,2,4]triazolo[4,3-a][1,4]diazepin-2-yl)ethynyl)pyridin-3-yl)pent-1-yn-1-yl)-1-oxoisoindolin-2-yl)piperidine-2,6-dione], the half-inhibitory concentration (IC50) in assay [1] (MOLM-13, 96 h) is 6.4 nM; in assay [2] (MDA-MB-231, 96 h) it was 7.4 nM; in assay [4] it was 32.4 nM.
For `Cc1c(C#Cc2ccc(CCCC#Cc3cccc4c3CN(C3CCC(=O)NC3=O)C4=O)cn2)sc2c1C(c1ccc(Cl)cc1)=N[C@@H](C)c1nnc(C)n1-2` (stereo partly drawn) [Cpd. No. 14, 3-(4-(5-(6-(((S)-4-(4-chlorophenyl)-3,6,9-trimethyl-6H-thieno[3,2-f][1,2,4]triazolo[4,3-a][1,4]diazepin-2-yl)ethynyl)pyridin-3-yl)pent-1-yn-1-yl)-1-oxoisoindolin-2-yl)piperidine-2,6-dione], the IC50 in assay [1] (MOLM-13, 96 h) was 0.24 nM; in assay [2] (MDA-MB-231, 96 h), 0.18 nM; in assay [4], 1.1 nM.
`Cc1c(C#Cc2cnn(CCCC#Cc3cccc4c3C(=O)N(C3CCC(=O)NC3=O)C4=O)c2)sc2c1C(c1ccc(Cl)cc1)=N[C@@H](C)c1nnc(C)n1-2` (stereo partly drawn) [Cpd. No. 30, 4-(5-(4-(((S)-4-(4-chlorophenyl)-3,6,9-trimethyl-6H-thieno[3,2-f][1,2,4]triazolo[4,3-a][1,4]diazepin-2-yl)ethynyl)-1H-pyrazol-1-yl)pent-1-yn-1-yl)-2-(2,6-dioxopiperidin-3-yl)isoindoline-1,3-dione]: the IC50 turned out to be 3.7 nM in assay [2] (MDA-MB-231, 96 h) and 3.6 nM in assay [4].
Take `Cc1c(C#Cc2cnn(CCCCOc3cccc4c3C(=O)N(C3CCC(=O)NC3=O)C4=O)c2)sc2c1C(c1ccc(Cl)cc1)=N[C@@H](C)c1nnc(C)n1-2` (stereo partly drawn) [Cpd. No. 32, 4-(4-(4-(((S)-4-(4-chlorophenyl)-3,6,9-trimethyl-6H-thieno[3,2-f][1,2,4]triazolo[4,3-a][1,4]diazepin-2-yl)ethynyl)-1H-pyrazol-1-yl)butoxy)-2-(2,6-dioxopiperidin-3-yl)isoindoline-1,3-dione]: the IC50 came to 2.5 nM in assay [2] (MDA-MB-231, 96 h) and 3.5 nM in assay [4].
For `Cc1c(C#Cc2cnn(CCCCNc3cccc4c3C(=O)N(C3CCC(=O)NC3)C4=O)c2)sc2c1C(c1ccc(Cl)cc1)=NCc1nnc(C)n1-2` (stereo not shown) [compound 164, 4-((4-(4-((4-(4-chlorophenyl)-3,9-dimethyl-6H-thieno[3,2-f][1,2,4]triazolo[4,3-a][1,4]diazepin-2-yl)ethynyl)-1H-pyrazol-1-yl)butyl)amino)-2-(6-oxopiperidin-3-yl)isoindoline-1,3-dione], the half-maximal inhibitory concentration (IC50) stood at 78.5 nM in assay [2] (MDA-MB-231, 96 h) and 74 nM in assay [3].
In the same order, the values of `Cc1c(C#Cc2cnn(CCCCN3C(=O)CCC(N4Cc5c(N)cccc5C4=O)C3=O)c2)sc2c1C(c1ccc(Cl)cc1)=N[C@@H](C)c1nnc(C)n1-2` (stereo partly drawn) [compound 165, 3-(4-amino-1-oxoisoindolin-2-yl)-1-(4-(4-(((S)-4-(4-chlorophenyl)-3,6,9-trimethyl-6H-thieno[3,2-f][1,2,4]triazolo[4,3-a][1,4]diazepin-2-yl)ethynyl)-1H-pyrazol-1-yl)butyl)piperidine-2,6-dione] are 12.7 nM and 3.7 nM.
